This passage reports Ki, LC50 and Activity results from ChEMBL document CHEMBL1152774, “Inhibition of Trypanosoma brucei glucose-6-phosphate dehydrogenase by human steroids and their effects on the viability of cultured parasites” (Bioorg Med Chem, 2009).

The source made the active and inactive calls. The rule behind the calls is not given here.

Broadly, the Ki is a measure of affinity in units of concentration, obtained from inhibition or displacement. The low end stands for higher affinity, the high end for lower affinity.

Test [1] has as its target T1, Glucose-6-phosphate 1-dehydrogenase (Trypanosoma brucei, UniProt Q9GRG7).
T1 sequence (Q9GRG7 whole entry): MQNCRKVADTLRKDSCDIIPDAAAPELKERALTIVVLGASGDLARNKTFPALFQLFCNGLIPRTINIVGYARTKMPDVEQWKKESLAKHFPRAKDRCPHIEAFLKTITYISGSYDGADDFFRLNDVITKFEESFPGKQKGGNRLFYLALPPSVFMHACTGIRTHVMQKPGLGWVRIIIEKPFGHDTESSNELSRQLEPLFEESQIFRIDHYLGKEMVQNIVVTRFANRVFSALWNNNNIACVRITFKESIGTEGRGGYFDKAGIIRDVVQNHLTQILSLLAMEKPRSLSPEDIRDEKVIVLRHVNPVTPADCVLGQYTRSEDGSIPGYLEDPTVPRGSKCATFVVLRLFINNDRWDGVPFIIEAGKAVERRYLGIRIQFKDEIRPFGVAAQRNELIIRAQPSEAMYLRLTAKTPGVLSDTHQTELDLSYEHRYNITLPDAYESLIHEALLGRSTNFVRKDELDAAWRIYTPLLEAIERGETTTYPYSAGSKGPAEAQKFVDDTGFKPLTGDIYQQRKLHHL
The experiment in a line: Inhibition of Trypanosoma brucei G6PDH using glucose-6-phosphate as substrate by Lineweaver-Burke plot.

The subject of another test is Trypanosoma brucei. Nature of the test: Trypanocidal activity against Trypanosoma brucei 427 bloodstream form after 48 hrs by MTS assay. It is filed as functional. Particulars: Trypanosoma brucei, 427, 48 h; read-out: LD50 (the source's name).
In test [2] the target is T2, Glucose-6-phosphate 1-dehydrogenase (Homo sapiens, UniProt P11413). Nature of the test: Inhibition of human G6PDH using NADP as substrate by Lineweaver-Burke plot.
T2 sequence (P11413 whole entry): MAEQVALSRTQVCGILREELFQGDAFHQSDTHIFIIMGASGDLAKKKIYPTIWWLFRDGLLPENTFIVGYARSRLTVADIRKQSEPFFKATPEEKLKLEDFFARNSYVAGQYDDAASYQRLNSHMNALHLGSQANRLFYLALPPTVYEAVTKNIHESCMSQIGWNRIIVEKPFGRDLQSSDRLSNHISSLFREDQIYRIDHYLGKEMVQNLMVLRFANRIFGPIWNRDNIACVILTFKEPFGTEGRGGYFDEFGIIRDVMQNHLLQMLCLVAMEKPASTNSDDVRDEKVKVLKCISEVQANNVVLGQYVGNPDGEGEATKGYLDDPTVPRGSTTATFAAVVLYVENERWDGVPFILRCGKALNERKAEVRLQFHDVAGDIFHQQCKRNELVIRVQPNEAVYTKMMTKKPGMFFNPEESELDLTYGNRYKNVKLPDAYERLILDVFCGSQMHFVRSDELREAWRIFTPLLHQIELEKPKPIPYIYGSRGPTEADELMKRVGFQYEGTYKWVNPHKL
Test [3] deals with T2, Glucose-6-phosphate 1-dehydrogenase. The experiment in a line: Inhibition of human G6PDH using glucose-6-phosphate as substrate by Lineweaver-Burke plot.
Test [4] addresses T1, Glucose-6-phosphate 1-dehydrogenase. The experiment in a line: Inhibition of Trypanosoma brucei G6PDH using NADP as substrate by Lineweaver-Burke plot.
A further test relates to Leishmania mexicana. Nature of the test: Antileishmanial activity against Leishmania mexicana early-metacyclic promastigotes up to 96 uM after 48 hrs by MTS assay. It is filed as functional, organism-based. For orientation: Formazan colour is commonly taken as a measure of viable cells.

On to `C[C@]12CC[C@H](O)C[C@@H]1CC[C@@H]1[C@@H]2CC[C@]2(C)C(=O)CC[C@@H]12` [EPIANDROSTERONE], for which the Ki in test [1] worked out at 0.49 µM; in test [2], 3 µM; in test [3], 3.4 µM; in test [4], 0.46 µM. In addition, the LC50 with Trypanosoma brucei came out at 24.5 µM. For the same molecule, in the test with Leishmania mexicana, the outcome was inactive.

Take `C[C@]12CC[C@H](O)CC1=CC[C@@H]1[C@@H]2CC[C@]2(C)C(=O)CC[C@@H]12` [PRASTERONE]: the Ki in test [1] is 1.7 µM; in test [2], 6.2 µM; in test [3] it was 8.9 µM; in test [4], 1.1 µM. Besides, the LC50 in the test on Trypanosoma brucei came to 43.8 µM. For the same molecule, the outcome in the test on Leishmania mexicana was inactive.
